Columns and labels:
Format in all cases: cell-based
human TLR7 = target: T1, human TLR7 (Homo sapiens, UniProt Q9NYK1); assay: TLR7 inhibition reporter assay (HEK-Blue SEAP reporter); conditions: HEK-Blue cells overexpressing human TLR7; gardiquimod 7.5 μM; 22 hour incubation
T1 construct: host or cells: HEK-Blue cells
T1 sequence (Q9NYK1 27-1049): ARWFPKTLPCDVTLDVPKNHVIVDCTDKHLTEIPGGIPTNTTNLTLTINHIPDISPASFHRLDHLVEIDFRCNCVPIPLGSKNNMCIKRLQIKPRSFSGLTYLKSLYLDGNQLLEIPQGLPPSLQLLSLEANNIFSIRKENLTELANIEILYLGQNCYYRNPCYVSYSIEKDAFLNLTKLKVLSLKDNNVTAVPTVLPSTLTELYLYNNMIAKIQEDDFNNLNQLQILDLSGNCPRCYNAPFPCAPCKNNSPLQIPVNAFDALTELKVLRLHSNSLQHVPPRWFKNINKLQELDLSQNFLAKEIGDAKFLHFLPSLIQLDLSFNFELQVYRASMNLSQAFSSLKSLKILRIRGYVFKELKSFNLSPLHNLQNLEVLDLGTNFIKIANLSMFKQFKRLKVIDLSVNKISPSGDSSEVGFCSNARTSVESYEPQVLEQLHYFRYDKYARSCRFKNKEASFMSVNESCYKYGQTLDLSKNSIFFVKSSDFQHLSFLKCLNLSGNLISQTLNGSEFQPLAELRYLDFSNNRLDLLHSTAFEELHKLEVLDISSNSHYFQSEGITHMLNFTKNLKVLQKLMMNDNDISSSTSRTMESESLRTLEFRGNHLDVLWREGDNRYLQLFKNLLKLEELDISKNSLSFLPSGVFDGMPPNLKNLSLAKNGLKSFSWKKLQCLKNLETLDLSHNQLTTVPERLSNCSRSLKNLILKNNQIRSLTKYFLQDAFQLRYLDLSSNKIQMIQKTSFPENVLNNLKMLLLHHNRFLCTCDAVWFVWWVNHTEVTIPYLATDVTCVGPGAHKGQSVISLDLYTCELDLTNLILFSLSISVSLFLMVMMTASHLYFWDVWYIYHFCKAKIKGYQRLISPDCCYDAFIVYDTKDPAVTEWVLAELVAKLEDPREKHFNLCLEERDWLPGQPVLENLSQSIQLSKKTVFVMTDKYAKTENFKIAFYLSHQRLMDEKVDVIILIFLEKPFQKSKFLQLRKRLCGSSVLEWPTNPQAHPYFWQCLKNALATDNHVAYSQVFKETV
Procedure, shortened: (§1)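 Human TLR7/8/9 HEK-Blue reporter lines; dose range 0.05 nM–50 μM; 30 min RT preincubation; stimulus gardiquimod 7.5 μM / R848 15.9 μM / ODN2006 5 nM respectively; 22 h, 37 °C; SEAP detected colorimetrically.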

human TLR8 = target: T2, human TLR8 (Homo sapiens, UniProt Q9NR97); assay: TLR8 inhibition reporter assay (HEK-Blue SEAP reporter); conditions: HEK-Blue cells overexpressing human TLR8; R848 15.9 μM; 22 hour incubation
T2 construct: host or cells: HEK-Blue cells
T2 sequence (Q9NR97 27-1041): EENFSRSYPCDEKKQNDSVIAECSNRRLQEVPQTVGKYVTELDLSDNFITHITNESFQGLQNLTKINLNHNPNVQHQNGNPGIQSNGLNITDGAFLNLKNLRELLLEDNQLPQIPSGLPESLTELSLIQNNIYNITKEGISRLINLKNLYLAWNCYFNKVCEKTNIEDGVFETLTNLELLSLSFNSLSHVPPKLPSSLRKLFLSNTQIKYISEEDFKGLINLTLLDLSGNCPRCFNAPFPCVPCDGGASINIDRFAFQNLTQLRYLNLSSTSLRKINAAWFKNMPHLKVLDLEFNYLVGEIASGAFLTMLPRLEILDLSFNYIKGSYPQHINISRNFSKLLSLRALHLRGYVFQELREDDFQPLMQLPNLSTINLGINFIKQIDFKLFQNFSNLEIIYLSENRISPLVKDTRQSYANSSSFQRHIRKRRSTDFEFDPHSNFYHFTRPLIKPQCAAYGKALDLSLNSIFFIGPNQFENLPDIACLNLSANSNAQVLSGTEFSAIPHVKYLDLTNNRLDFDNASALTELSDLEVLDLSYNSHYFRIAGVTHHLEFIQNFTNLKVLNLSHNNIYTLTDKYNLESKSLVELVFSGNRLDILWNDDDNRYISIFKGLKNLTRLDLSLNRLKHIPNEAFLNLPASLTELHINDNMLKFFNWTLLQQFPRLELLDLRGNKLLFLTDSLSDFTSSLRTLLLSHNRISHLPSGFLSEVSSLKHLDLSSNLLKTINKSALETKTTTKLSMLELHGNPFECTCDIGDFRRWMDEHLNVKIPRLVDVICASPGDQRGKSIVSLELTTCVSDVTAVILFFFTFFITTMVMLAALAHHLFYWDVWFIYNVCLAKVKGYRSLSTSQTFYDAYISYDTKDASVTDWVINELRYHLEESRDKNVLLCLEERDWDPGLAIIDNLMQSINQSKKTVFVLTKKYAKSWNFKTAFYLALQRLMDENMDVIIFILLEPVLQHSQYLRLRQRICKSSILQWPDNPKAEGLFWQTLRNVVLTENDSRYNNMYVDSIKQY
Procedure, shortened: as §1

human TLR9 = target: T3, human TLR9 (Homo sapiens, UniProt Q9NR96); assay: TLR9 inhibition reporter assay (HEK-Blue SEAP reporter); conditions: HEK-Blue cells overexpressing human TLR9; ODN2006 5 nM; 22 hour incubation
T3 construct: host or cells: HEK-Blue cells
T3 sequence (Q9NR96 26-1032): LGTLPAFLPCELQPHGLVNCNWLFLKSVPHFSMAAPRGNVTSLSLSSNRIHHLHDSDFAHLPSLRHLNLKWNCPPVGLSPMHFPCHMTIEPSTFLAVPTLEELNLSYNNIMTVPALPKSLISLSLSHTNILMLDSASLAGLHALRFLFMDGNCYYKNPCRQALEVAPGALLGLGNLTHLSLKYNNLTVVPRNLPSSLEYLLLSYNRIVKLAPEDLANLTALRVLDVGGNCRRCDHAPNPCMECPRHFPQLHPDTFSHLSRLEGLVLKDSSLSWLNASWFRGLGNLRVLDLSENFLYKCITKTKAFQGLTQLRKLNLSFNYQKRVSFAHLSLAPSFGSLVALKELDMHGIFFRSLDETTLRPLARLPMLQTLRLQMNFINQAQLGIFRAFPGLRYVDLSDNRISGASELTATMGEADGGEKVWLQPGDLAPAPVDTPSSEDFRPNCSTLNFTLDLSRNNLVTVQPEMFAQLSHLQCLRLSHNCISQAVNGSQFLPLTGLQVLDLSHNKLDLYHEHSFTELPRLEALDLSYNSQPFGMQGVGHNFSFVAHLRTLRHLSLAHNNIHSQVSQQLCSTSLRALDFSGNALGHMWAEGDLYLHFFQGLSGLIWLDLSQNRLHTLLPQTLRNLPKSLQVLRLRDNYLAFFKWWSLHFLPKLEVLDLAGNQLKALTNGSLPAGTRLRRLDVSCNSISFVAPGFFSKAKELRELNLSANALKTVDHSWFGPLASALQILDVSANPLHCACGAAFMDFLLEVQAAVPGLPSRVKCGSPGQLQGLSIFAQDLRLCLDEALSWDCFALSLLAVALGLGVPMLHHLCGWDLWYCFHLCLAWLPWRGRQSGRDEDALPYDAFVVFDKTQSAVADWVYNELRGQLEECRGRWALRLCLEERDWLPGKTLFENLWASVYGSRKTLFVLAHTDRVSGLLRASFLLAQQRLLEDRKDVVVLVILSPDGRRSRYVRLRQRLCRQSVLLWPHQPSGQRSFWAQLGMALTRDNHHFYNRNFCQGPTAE
Procedure, shortened: as §1

IC50 (human TLR7) | IC50 (human TLR8) | IC50 (human TLR9) | Structure (SMILES)
2 nM | 0.62 nM | 939 nM | CNCCN1CCN(c2ccc3[nH]c(-c4ccnc5[nH]ccc45)c(C(C)C)c3c2)CC1 [Example 138, 2-(4-(3-isopropyl-2-(1H-pyrrolo[2,3-b]pyridin-4-yl)-1H-indol-5-yl)piperazin-1-yl)-N-methylethan-1-amine]
2760 nM | 1070 nM | 157 nM | CCc1c(-c2ccnc(C)c2)[nH]c2ccc(N3CCN(C4CCN(C)CC4)CC3)cc12 [Example 139, 3-ethyl-5-(4-(1-methylpiperidin-4-yl)piperazin-1-yl)-2-(2-methylpyridin-4-yl)-1H-indole]
2170 nM | 1720 nM | 124 nM | Cc1c(-c2ccnc3[nH]ccc23)[nH]c2ccc(N3CCN(C4CCN(C)CC4)CC3)cc12 [Example 141, 4-(3-methyl-5-(4-(1-methylpiperidin-4-yl)piperazin-1-yl)-1H-indol-2-yl)-1H-pyrrolo[2,3-b]pyridine]
3670 nM | 7880 nM | 225 nM | CCc1c(-c2ccnc(C)c2)[nH]c2ccc(N3CCN(C4CCN(CC)CC4)CC3)cc12 [Example 142, 3-ethyl-5-(4-(1-ethylpiperidin-4-yl)piperazin-1-yl)-2-(2-methylpyridin-4-yl)-1H-indole]
75 nM | 10 nM | 839 nM | CCc1c(-c2ccnc(OC)c2)[nH]c2ccc(N3CCN(C4CCN(C)CC4)CC3)cc12 [Example 143, 3-ethyl-2-(2-methoxypyridin-4-yl)-5-(4-(1-methylpiperidin-4-yl)piperazin-1-yl)-1H-indole]
45 nM | 45 nM | 952 nM | CCc1c(-c2ccc(OC)c(OC)c2)[nH]c2cc(C)c(N3CCN(CCNC)CC3)cc12 [Example 144, 2-(4-(2-(3,4-dimethoxyphenyl)-3-ethyl-6-methyl-1H-indol-5-yl)piperazin-1-yl)-N-methylethan-1-amine]
206 nM | 12 nM | 1950 nM | C#CCCCN1CCN(c2ccc3[nH]c(-c4ccc(OC)c(OC)c4)c(C(C)C)c3c2)CC1 [Example 146, 2-(3,4-dimethoxyphenyl)-3-isopropyl-5-(4-(pent-4-yn-1-yl)piperazin-1-yl)-1H-indole]
4650 nM | 17900 nM | 227 nM | CCc1c(-c2ccnc(C)c2)[nH]c2ccc(N3CCN(C4CCN(C(C)C)CC4)CC3)cc12 [Example 147, 3-ethyl-5-(4-(1-isopropylpiperidin-4-yl)piperazin-1-yl)-2-(2-methylpyridin-4-yl)-1H-indole]
96 nM | 32 nM | 446 nM | CCc1c(-c2ccnc(OC)c2)[nH]c2ccc(N3CCN(C4CCN(CC)CC4)CC3)cc12 [Example 148, 3-ethyl-5-(4-(1-ethylpiperidin-4-yl)piperazin-1-yl)-2-(2-methoxypyridin-4-yl)-1H-indole]
681 nM | 62 nM | 727 nM | COc1ccc(-c2[nH]c3ccc(N4CCN(C5CCN(C)CC5)CC4)cc3c2C)cc1OC [Example 149, 2-(3,4-dimethoxyphenyl)-3-methyl-5-(4-(1-methylpiperidin-4-yl)piperazin-1-yl)-1H-indole]
360 nM | 102 nM | 425 nM | CCc1c(-c2ccc(OC)c(OC)c2)[nH]c2ccc(N3CCN(CCNC)CC3(C)C)cc12 [Example 150, 2-(4-(2-(3,4-dimethoxyphenyl)-3-ethyl-1H-indol-5-yl)-3,3-dimethylpiperazin-1-yl)-N-methylethan-1-amine]
4230 nM | 47500 nM | 327 nM | Cc1c(-c2ccnc3[nH]ccc23)[nH]c2ccc(N3CCN(C4CCN(C(C)C)CC4)CC3)cc12 [Example 151, 4-(5-(4-(1-isopropylpiperidin-4-yl)piperazin-1-yl)-3-methyl-1H-indol-2-yl)-1H-pyrrolo[2,3-b]pyridine]
83 nM | 11 nM | 755 nM | CCc1c(-c2ccnc(OC)c2)[nH]c2ccc(N3CCN(C4CCN(C(C)C)CC4)CC3)cc12 [Example 153, 3-ethyl-5-(4-(1-isopropylpiperidin-4-yl)piperazin-1-yl)-2-(2-methoxypyridin-4-yl)-1H-indole]
79 nM | 14 nM | 829 nM | CCc1c(-c2ccc(OC)c(OC)c2)[nH]c2ccc(N3CCN(C4CCN(C)CC4)CC3)cc12 [Example 154, 2-(3,4-dimethoxyphenyl)-3-ethyl-5-(4-(1-methylpiperidin-4-yl)piperazin-1-yl)-1H-indole]
52 nM | 6.6 nM | 597 nM | CCc1c(-c2cc(OC)nc(OC)c2)[nH]c2ccc(N3CCN(C4CCN(C)CC4)CC3)cc12 [Example 156, 2-(2,6-dimethoxypyridin-4-yl)-3-ethyl-5-(4-(1-methylpiperidin-4-yl)piperazin-1-yl)-1H-indole]

— US11306092B2, “Amino indole compounds useful as TLR inhibitors” (BRISTOL-MYERS SQUIBB COMPANY, priority 2017, dated 2022)
